Assay results from PubChem BioAssay (NCI).
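Results reflect a 48-hour exposure of cells in 96-well plates to compound at five concentrations. TGI is the concentration that stops growth completely.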

Tests used:
Assay in all cases: inhibition of tumour cell growth, NCI panel, 48 h
SK-MEL-28 melanoma = tested on: SK-MEL-28 melanoma
PC-3 prostate = tested on: PC-3 prostate
M14 melanoma = tested on: M14 melanoma
A498 renal = tested on: A498 renal
MDA-N = tested on: MDA-N
CAKI-1 renal = tested on: CAKI-1 renal
UACC-257 melanoma = tested on: UACC-257 melanoma
NCI/ADR-RES ovarian = tested on: NCI/ADR-RES ovarian
IGROV1 ovarian = tested on: IGROV1 ovarian
OVCAR-5 ovarian = tested on: OVCAR-5 ovarian
SR leukemia = tested on: SR leukemia
COLO 205 colon = tested on: COLO 205 colon
OVCAR-8 ovarian = tested on: OVCAR-8 ovarian
SNB-19 CNS = tested on: SNB-19 CNS
SW-620 colon = tested on: SW-620 colon
RXF 393 renal = tested on: RXF 393 renal
EKVX NSCLC = tested on: EKVX NSCLC
LOX IMVI melanoma = tested on: LOX IMVI melanoma
ACHN renal = tested on: ACHN renal
SNB-75 CNS = tested on: SNB-75 CNS
MCF7 breast = tested on: MCF7 breast
BT-549 breast = tested on: BT-549 breast
SK-MEL-2 melanoma = tested on: SK-MEL-2 melanoma
SF-539 CNS = tested on: SF-539 CNS
RPMI-8226 leukemia = tested on: RPMI-8226 leukemia
SN12C renal = tested on: SN12C renal
MDA-MB-435 = tested on: MDA-MB-435
HCT-116 colon = tested on: HCT-116 colon
OVCAR-4 ovarian = tested on: OVCAR-4 ovarian
MOLT-4 leukemia = tested on: MOLT-4 leukemia
HOP-92 NSCLC = tested on: HOP-92 NSCLC
HT29 colon = tested on: HT29 colon
MALME-3M melanoma = tested on: MALME-3M melanoma
SK-MEL-5 melanoma = tested on: SK-MEL-5 melanoma
T-47D breast = tested on: T-47D breast
DU-145 prostate = tested on: DU-145 prostate
NCI-H522 lung = tested on: NCI-H522 lung
UO-31 renal = tested on: UO-31 renal
NCI-H23 lung = tested on: NCI-H23 lung
786-0 renal = tested on: 786-0 renal
HCT-15 colon = tested on: HCT-15 colon
OVCAR-3 ovarian = tested on: OVCAR-3 ovarian
SF-295 CNS = tested on: SF-295 CNS
TK-10 renal = tested on: TK-10 renal
KM12 colon = tested on: KM12 colon
HS 578T breast = tested on: HS 578T breast
CCRF-CEM leukemia = tested on: CCRF-CEM leukemia
UACC-62 melanoma = tested on: UACC-62 melanoma
HL-60(TB) leukemia = tested on: HL-60(TB) leukemia
MDA-MB-231 breast = tested on: MDA-MB-231 breast
NCI-H460 lung = tested on: NCI-H460 lung
K-562 leukemia = tested on: K-562 leukemia
HOP-62 NSCLC = tested on: HOP-62 NSCLC
HCC-2998 colon = tested on: HCC-2998 colon
SF-268 CNS = tested on: SF-268 CNS
SK-OV-3 ovarian = tested on: SK-OV-3 ovarian
NCI-H226 lung = tested on: NCI-H226 lung
U251 CNS = tested on: U251 CNS

`C(=Nc1ccc(-c2nc3ccccc3o2)cc1)c1ccco1` was tested, and the TGI (SK-MEL-28 melanoma) was greater than 100 µM, the TGI (PC-3 prostate) was greater than 100 µM and the TGI (M14 melanoma) was greater than 100 µM. The TGI (A498 renal) was 95 µM, the TGI (MDA-N) was greater than 100 µM and the TGI (CAKI-1 renal) was greater than 100 µM. It also gave a TGI (UACC-257 melanoma) greater than 100 µM, a TGI (NCI/ADR-RES ovarian) greater than 100 µM and a TGI (IGROV1 ovarian) greater than 100 µM. It also gave a TGI (OVCAR-5 ovarian) greater than 100 µM, a TGI (SR leukemia) greater than 100 µM and a TGI (COLO 205 colon) greater than 100 µM. It also gave a TGI (OVCAR-8 ovarian) greater than 100 µM, a TGI (SNB-19 CNS) greater than 100 µM and a TGI (SW-620 colon) greater than 100 µM. For the same molecule, the TGI (RXF 393 renal) was greater than 100 µM, the TGI (EKVX NSCLC) was greater than 100 µM and the TGI (LOX IMVI melanoma) was greater than 100 µM. It also gave a TGI (ACHN renal) greater than 100 µM, a TGI (SNB-75 CNS) greater than 100 µM and a TGI (MCF7 breast) greater than 100 µM. It also gave a TGI (BT-549 breast) greater than 100 µM, a TGI (SK-MEL-2 melanoma) greater than 100 µM and a TGI (SF-539 CNS) greater than 100 µM. For the same molecule, the TGI (RPMI-8226 leukemia) was 36.9 µM, the TGI (SN12C renal) was greater than 100 µM and the TGI (MDA-MB-435) was greater than 100 µM. The TGI (HCT-116 colon) was greater than 100 µM, the TGI (OVCAR-4 ovarian) was greater than 100 µM and the TGI (MOLT-4 leukemia) was greater than 100 µM. For the same molecule, the TGI (HOP-92 NSCLC) was greater than 100 µM, the TGI (HT29 colon) was greater than 100 µM and the TGI (MALME-3M melanoma) was greater than 100 µM. It also gave a TGI (SK-MEL-5 melanoma) greater than 100 µM, a TGI (T-47D breast) greater than 100 µM and a TGI (DU-145 prostate) greater than 100 µM. For the same molecule, the TGI (NCI-H522 lung) was greater than 100 µM, the TGI (UO-31 renal) was greater than 100 µM and the TGI (NCI-H23 lung) was greater than 100 µM. For the same molecule, the TGI (786-0 renal) was greater than 100 µM and the TGI (HCT-15 colon) was greater than 100 µM.

With `Cc1ccc(CC[P+](=O)CCc2ccc(C)nc2)cn1` the TGI (SK-MEL-28 melanoma) was greater than 100 µM, the TGI (PC-3 prostate) was greater than 100 µM and the TGI (M14 melanoma) was greater than 100 µM. It also gave a TGI (MDA-N) greater than 100 µM, a TGI (CAKI-1 renal) greater than 100 µM and a TGI (OVCAR-3 ovarian) greater than 100 µM. The TGI (SF-295 CNS) was greater than 100 µM, the TGI (UACC-257 melanoma) was greater than 100 µM and the TGI (NCI/ADR-RES ovarian) was greater than 100 µM. The TGI (IGROV1 ovarian) was greater than 100 µM, the TGI (TK-10 renal) was greater than 100 µM and the TGI (OVCAR-5 ovarian) was greater than 100 µM. The TGI (SR leukemia) was greater than 100 µM, the TGI (COLO 205 colon) was greater than 100 µM and the TGI (KM12 colon) was greater than 100 µM. For the same molecule, the TGI (OVCAR-8 ovarian) was greater than 100 µM, the TGI (SNB-19 CNS) was greater than 100 µM and the TGI (SW-620 colon) was greater than 100 µM. The TGI (RXF 393 renal) was greater than 100 µM, the TGI (HS 578T breast) was greater than 100 µM and the TGI (CCRF-CEM leukemia) was greater than 100 µM. The TGI (EKVX NSCLC) was greater than 100 µM, the TGI (UACC-62 melanoma) was greater than 100 µM and the TGI (HL-60(TB) leukemia) was greater than 100 µM. For the same molecule, the TGI (LOX IMVI melanoma) was greater than 100 µM, the TGI (ACHN renal) was greater than 100 µM and the TGI (MCF7 breast) was greater than 100 µM. The TGI (SF-539 CNS) was greater than 100 µM, the TGI (MDA-MB-231 breast) was greater than 100 µM and the TGI (RPMI-8226 leukemia) was greater than 100 µM. It also gave a TGI (NCI-H460 lung) greater than 100 µM, a TGI (SN12C renal) greater than 100 µM and a TGI (MDA-MB-435) greater than 100 µM. For the same molecule, the TGI (HCT-116 colon) was greater than 100 µM, the TGI (OVCAR-4 ovarian) was greater than 100 µM and the TGI (MOLT-4 leukemia) was greater than 100 µM. The TGI (HOP-92 NSCLC) was greater than 100 µM, the TGI (K-562 leukemia) was greater than 100 µM and the TGI (HT29 colon) was greater than 100 µM. It also gave a TGI (HOP-62 NSCLC) greater than 100 µM, a TGI (HCC-2998 colon) greater than 100 µM and a TGI (MALME-3M melanoma) greater than 100 µM. It also gave a TGI (SF-268 CNS) greater than 100 µM, a TGI (SK-MEL-5 melanoma) greater than 100 µM and a TGI (SK-OV-3 ovarian) greater than 100 µM. The TGI (T-47D breast) was greater than 100 µM, the TGI (DU-145 prostate) was greater than 100 µM and the TGI (NCI-H226 lung) was greater than 100 µM. The TGI (U251 CNS) was greater than 100 µM, the TGI (NCI-H522 lung) was greater than 100 µM and the TGI (NCI-H23 lung) was greater than 100 µM. It also gave a TGI (786-0 renal) greater than 100 µM and a TGI (HCT-15 colon) greater than 100 µM.
